What is called MIC is the least concentration at which growth counts as inhibited. Broadly, the IC50 is the concentration that gives 50% inhibition. High values mean weaker potency, low ones greater potency.

Among the data in US5760063A, “Arylhydrazone derivatives useful as antibacterial agents” (Scriptgen Pharmaceuticals, Inc., priority 1996, dated 1998) are MIC and IC50 values, retold here.

One assay deals with S. aureus. In words: MIC assay, S. aureus. It is filed as cell-based. The conditions noted are these: Staphylococcus aureus, 18 h, read-out: S. Aur. MIC. The procedure: (§1) Compounds were prepared to a concentration of 10 mM in 100% DMSO. These were then diluted to 200 μM with 50 mM tris. A 2% DMSO solution was prepared in 50 mM tris as well as a 20 μM solution of rifampicin in 2% DMSO with 50 mM tris. With each compound and control, one to one dilutions were made in a serial dilution fashion across microtiter plates with 50 mM tris. The highest concentration was 200 μM for each compound and 20 μM for rifampicin. The lowest concentrations were 1.562 μM and 0.156 μM for the compounds and rifampicin respectively.
(§2) S. aureus, E. coli, Psuedomonas aeruginosa, Enterobacter cloacae, and Enterococcus faecium cells had been grown up in a shake culture overnight at 37° C. in LB medium. These were diluted 500 fold and added to the compounds at an equal volume. The highest compound concentration was now 100 μM, and 10 μM for rifampicin. Baseline O.D. readings were taken at 595 nm utilizing a Bio-Rad 3550-UV plate reader. A second reading was taken after 18 hours.

A further assay addresses E. coli RNAP (Escherichia coli, UniProt P0A8T7+P0A8V2). In words: High throughput in vitro transcription (RNAP) assay. It is filed as biochemical. The conditions noted are these: 60 minutes incubation. How it is done:
(I) High Throughput in vitro Transcription (RNAP) Assay
The reagents are added to the DMSO/compound with a Tomtec Quadra. The Quadra acts as 96-tip pipetman, combined with a movable base. The reagents and compounds are stored and used in 96-well polypropylene u-bottom microtiter plates.
The Quadra is run in backfill mode (filled with water). A total of […] of reagents must be added. This is divided into a 20 ml RNAP/Txn Buffer mix and a 25 ml DNA/NTP/water mix. The RNAP mix is added first to allow the drug a chance to interact with RNAP before RNAP interacts with DNA (this interaction lasts less than 5 seconds). The mixing of the reagents is done with a multivortexer after all reagents have been added (setting 5.5 for 90 seconds).
After incubation for 60 minutes, the reaction is stopped with 150 ml 10% TCA, which also precipitates the RNA. The RNA is allowed to sit a room temperature for approximately 15-45 minutes (until all plates have been stopped and the cell harvester has been set up).
The TCA precipitated RNA is transferred to double-thick glass filtermats using a Tomtec cell harvester. The wells of the microtiter plate are washed with 5% TCA and sucked through the same filtermat. Two additional washes with 5 % TCA solution are sufficient to reduce background counts.
The filters are then dried at 60° for 60 minutes. It is important to remove all of the liquid, or this may quench the scintillation fluid when it is added.
The dry filters are sealed into plastic bags with a heat-sealer. A hole is cut in one corner and 12 ml of "β-plate scintillant" is added to each bag.
When choosing a scintillation counting program on the Wallac Microb 1450, it is important to choose one which counts using the appropriate window for P^32. Each well is counted for 3 seconds. The data obtained is used to calculate an lC50 value.

The test system of a further assay is Enterobacter cloacae. Description: MIC assay, Enterobacter cloacae (CL). It is filed as cell-based. The conditions noted are these: OD 595 nm after 18 hours. The procedure:
as §1, §2

The test system of another assay is Enterococcus faecium. Description: MIC assay, Enterococcus faecium (FAE). It is filed as cell-based. The following applies: OD 595 nm after 18 hours. How it is done: as §1, §2
For the next assay, the system named is Psuedomonas aeruginosa. Description: MIC assay, Psuedomonas aeruginosa (PS). Type of assay: cell-based. The conditions noted are these: OD 595 nm after 18 hours. How it is done: as §1, §2

Converted amounts (≈) assume the structure as drawn.

Sequence of E. coli RNAP (P0A8V2 whole entry): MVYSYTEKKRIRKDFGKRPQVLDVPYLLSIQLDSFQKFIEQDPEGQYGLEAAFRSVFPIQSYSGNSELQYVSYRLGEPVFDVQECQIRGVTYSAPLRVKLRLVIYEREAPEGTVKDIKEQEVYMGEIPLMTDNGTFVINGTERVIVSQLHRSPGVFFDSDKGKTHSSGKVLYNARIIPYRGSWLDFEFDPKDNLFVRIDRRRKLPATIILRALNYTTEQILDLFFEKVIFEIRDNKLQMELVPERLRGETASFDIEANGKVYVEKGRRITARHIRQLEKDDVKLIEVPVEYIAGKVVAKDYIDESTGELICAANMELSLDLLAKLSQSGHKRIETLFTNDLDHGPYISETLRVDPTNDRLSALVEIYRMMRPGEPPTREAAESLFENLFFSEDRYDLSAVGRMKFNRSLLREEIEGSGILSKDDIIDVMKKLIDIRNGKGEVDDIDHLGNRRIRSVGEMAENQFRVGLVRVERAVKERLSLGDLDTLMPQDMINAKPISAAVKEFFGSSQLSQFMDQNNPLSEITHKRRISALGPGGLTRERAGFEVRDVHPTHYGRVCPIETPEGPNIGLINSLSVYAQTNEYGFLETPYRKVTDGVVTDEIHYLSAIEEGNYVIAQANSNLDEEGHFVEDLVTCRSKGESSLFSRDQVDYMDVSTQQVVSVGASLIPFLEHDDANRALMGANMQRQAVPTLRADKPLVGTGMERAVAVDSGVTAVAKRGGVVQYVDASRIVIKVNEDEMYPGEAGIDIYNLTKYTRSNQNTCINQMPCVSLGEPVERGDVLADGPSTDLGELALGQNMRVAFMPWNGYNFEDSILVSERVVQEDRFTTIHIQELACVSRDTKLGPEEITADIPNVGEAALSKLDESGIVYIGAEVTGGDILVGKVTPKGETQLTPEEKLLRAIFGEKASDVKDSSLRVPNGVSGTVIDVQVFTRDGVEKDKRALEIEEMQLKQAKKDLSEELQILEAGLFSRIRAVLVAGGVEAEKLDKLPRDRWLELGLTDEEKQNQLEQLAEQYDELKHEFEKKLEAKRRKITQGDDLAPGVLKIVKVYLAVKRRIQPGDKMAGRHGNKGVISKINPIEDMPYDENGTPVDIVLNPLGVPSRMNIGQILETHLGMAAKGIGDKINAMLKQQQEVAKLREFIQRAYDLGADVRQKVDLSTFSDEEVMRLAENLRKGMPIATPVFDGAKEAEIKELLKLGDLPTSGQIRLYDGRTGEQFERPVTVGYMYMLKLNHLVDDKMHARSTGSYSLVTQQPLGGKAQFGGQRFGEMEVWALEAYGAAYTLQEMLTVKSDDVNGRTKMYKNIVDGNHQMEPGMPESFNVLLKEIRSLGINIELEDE
Sequence of E. coli RNAP (P0A8T7 whole entry): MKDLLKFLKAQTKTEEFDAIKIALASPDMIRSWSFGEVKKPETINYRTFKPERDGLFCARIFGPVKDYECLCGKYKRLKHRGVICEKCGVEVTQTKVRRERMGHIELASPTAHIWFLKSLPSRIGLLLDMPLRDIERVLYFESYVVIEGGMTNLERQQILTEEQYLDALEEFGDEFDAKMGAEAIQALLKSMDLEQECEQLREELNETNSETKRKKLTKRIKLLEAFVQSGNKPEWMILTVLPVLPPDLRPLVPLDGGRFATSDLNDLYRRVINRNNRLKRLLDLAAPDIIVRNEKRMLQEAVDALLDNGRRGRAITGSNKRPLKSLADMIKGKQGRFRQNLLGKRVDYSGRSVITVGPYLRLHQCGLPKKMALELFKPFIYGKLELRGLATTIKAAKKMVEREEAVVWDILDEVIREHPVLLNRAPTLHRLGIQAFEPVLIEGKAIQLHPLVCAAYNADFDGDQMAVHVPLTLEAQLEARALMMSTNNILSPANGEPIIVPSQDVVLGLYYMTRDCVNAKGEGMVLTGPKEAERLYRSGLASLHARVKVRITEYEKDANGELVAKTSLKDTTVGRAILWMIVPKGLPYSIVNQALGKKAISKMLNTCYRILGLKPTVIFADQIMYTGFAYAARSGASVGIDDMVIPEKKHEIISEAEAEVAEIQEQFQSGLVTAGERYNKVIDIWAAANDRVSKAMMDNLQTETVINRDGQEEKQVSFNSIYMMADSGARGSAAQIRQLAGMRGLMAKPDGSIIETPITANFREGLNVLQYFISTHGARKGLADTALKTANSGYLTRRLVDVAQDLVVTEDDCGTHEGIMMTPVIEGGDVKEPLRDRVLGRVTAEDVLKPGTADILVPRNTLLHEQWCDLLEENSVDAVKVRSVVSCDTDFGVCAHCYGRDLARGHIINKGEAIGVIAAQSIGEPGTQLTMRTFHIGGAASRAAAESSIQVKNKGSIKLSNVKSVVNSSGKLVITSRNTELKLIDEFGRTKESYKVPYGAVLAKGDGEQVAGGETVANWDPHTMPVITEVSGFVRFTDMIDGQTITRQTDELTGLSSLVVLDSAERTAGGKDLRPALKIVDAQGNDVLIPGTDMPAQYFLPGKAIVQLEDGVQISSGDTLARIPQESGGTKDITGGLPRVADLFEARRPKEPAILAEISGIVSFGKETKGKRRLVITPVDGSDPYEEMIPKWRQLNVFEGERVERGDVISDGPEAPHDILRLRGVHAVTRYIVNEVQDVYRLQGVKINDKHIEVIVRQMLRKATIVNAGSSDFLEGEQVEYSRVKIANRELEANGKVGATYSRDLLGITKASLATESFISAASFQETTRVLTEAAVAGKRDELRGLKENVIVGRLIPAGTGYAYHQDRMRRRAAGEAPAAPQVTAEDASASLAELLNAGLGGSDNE
Sequence of E. coli RNAP (P0A7Z4 whole entry partner): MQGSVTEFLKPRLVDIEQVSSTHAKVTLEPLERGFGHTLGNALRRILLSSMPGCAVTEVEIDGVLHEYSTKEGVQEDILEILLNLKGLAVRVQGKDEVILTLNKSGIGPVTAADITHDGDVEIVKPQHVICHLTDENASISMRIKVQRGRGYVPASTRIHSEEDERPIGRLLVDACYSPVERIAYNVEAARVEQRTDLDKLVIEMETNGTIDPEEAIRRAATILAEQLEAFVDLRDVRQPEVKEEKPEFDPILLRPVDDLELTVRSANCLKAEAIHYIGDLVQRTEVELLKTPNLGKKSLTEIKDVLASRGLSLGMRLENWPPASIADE

For `N#CC(=NNc1ccc(Cl)cc1)C(=O)c1ccc(-c2ccccc2)cc1` [Example 13], the MIC in the assay on S. aureus, with Enterobacter cloacae, against Enterococcus faecium and against Psuedomonas aeruginosa was over 10 µM throughout. Further, at E. coli RNAP, the concentration for half-maximal inhibition (IC50) was over 10 µM.

Consider `CC(=O)N(N=C(C#N)C(=O)c1ccc(Cl)cc1)c1ccc([N+](=O)[O-])cc1` [Example 3], for which the MIC is over 10 µM with S. aureus, 0.5 to 10 µM (≈ 0.185 to 3.71 µg/mL) in the assay with Enterobacter cloacae, over 10 µM against Enterococcus faecium and over 10 µM in the assay with Psuedomonas aeruginosa. Further, the IC50 against E. coli RNAP was in the range of 0.5 to 10 µM.

In turn, `N#CC(=NNc1ccc([N+](=O)[O-])cc1)C(=O)c1ccc(Cl)nc1` [Example 8] displayed an IC50 on E. coli RNAP of 0.5 to 10 µM.

Turning to `CS(=O)(=O)C(=NNc1ccc([N+](=O)[O-])cc1)C(=O)c1ccc(Cl)cc1` [Example 2], the concentration for half-maximal inhibition (IC50) against E. coli RNAP lay in the range of 0.5 to 10 µM. For the same compound, the MIC in the assay with Enterobacter cloacae was 0.5 to 10 µM (≈ 0.191 to 3.82 µg/mL); in the assay on Enterococcus faecium it was over 10 µM; against Psuedomonas aeruginosa, over 10 µM.

As for `N#CC(=NNc1ccc([N+](=O)[O-])cc1)C(=O)c1ccccc1` [Example 23], the MIC was 0.5 to 10 µM (≈ 0.147 to 2.94 µg/mL) with S. aureus, 0.5 to 10 µM (≈ 0.147 to 2.94 µg/mL) with Enterobacter cloacae, over 10 µM in the assay on Enterococcus faecium and over 10 µM in the assay with Psuedomonas aeruginosa. Further, at E. coli RNAP, the IC50 was over 10 µM.

`N#CC(=NNc1ccc(F)cc1)C(=O)c1ccc(OC(F)(F)F)cc1` [Example 21]: the MIC was 0.5 to 10 µM (≈ 0.176 to 3.51 µg/mL) in the assay on S. aureus, 0.5 to 10 µM (≈ 0.176 to 3.51 µg/mL) in the assay with Enterobacter cloacae, over 10 µM against Enterococcus faecium and over 10 µM against Psuedomonas aeruginosa. On E. coli RNAP, this compound gave an IC50 of 0.5 to 10 µM.

In the case of `N#CC(=NNc1cc(C(F)(F)F)cc(C(F)(F)F)c1)C(=O)c1ccccc1` [Example 20], the minimal inhibitory concentration (MIC) in the assay with S. aureus was 0.5 to 10 µM (≈ 0.193 to 3.85 µg/mL); against Enterobacter cloacae, 0.5 to 10 µM (≈ 0.193 to 3.85 µg/mL); against Enterococcus faecium it was over 10 µM; in the assay with Psuedomonas aeruginosa, over 10 µM. The compound further gave an IC50 against E. coli RNAP of 0.5 to 10 µM.

Turning to `N#CC(=NNc1ccc(Cl)cc1)C(=O)c1ccc(Cl)cc1` [Example 19], the MIC with S. aureus is over 10 µM; with Enterobacter cloacae, 0.5 to 10 µM (≈ 0.159 to 3.18 µg/mL); in the assay on Enterococcus faecium it was over 10 µM; in the assay on Psuedomonas aeruginosa it was over 10 µM. On E. coli RNAP, this compound displayed a half-inhibitory concentration (IC50) of 0.5 to 10 µM.

With `N#CC(=NNc1ccc([N+](=O)[O-])cc1)C(=O)c1cccc(Cl)c1` [Example 22], the IC50 at E. coli RNAP was over 10 µM. For the same compound, the minimal inhibitory concentration (MIC) against Enterobacter cloacae, against Enterococcus faecium and in the assay with Psuedomonas aeruginosa was over 10 µM each time.

At E. coli RNAP, `CS(=O)(=O)Nc1ccc(NN=C(C#N)C(=O)c2ccc(Cl)cc2)cc1` [Example 7] registered an IC50 of 0.5 to 10 µM. Further, the MIC is 0.5 to 10 µM (≈ 0.188 to 3.77 µg/mL) in the assay with Enterobacter cloacae, over 10 µM with Enterococcus faecium and over 10 µM in the assay on Psuedomonas aeruginosa.

On to `Cc1c(C(=O)C(C#N)=NNc2ccc([N+](=O)[O-])cc2)sc2ccc(Cl)cc12` [Example 15], for which the MIC in the assay on S. aureus was over 10 µM; against Enterobacter cloacae, under 0.5 µM; with Enterococcus faecium, 0.5 to 10 µM (≈ 0.199 to 3.99 µg/mL); in the assay on Psuedomonas aeruginosa, over 10 µM. This compound also gave a half-inhibitory concentration (IC50) against E. coli RNAP of under 0.5 µM.

For `N#CC(=NNc1ccc([N+](=O)[O-])cc1)C(=O)c1ccc(-c2ccccc2)cc1` [Example 6], the minimum inhibitory concentration (MIC) in the assay on S. aureus was over 10 µM; with Enterobacter cloacae it was 0.5 to 10 µM (≈ 0.185 to 3.7 µg/mL); with Enterococcus faecium it was 1 µM (≈ 0.37 µg/mL); against Psuedomonas aeruginosa, over 10 µM. At E. coli RNAP, this compound returned an IC50 of 0.5 to 10 µM.

With `N#CC(=NNc1ccc(OC(F)(F)F)cc1)C(=O)c1ccc(Cl)cc1` [Example 18], the minimum inhibitory concentration (MIC) was 0.5 to 10 µM (≈ 0.184 to 3.68 µg/mL) in the assay on S. aureus, 0.5 to 10 µM (≈ 0.184 to 3.68 µg/mL) against Enterobacter cloacae, 0.5 to 10 µM (≈ 0.184 to 3.68 µg/mL) with Enterococcus faecium and over 10 µM in the assay on Psuedomonas aeruginosa. Moreover, the IC50 against E. coli RNAP fell in the range of 0.5 to 10 µM.

Consider `CS(=O)(=O)c1ccc(NN=C(C#N)C(=O)c2ccc(-c3ccccc3)cc2)cc1` [Example 11], for which, on E. coli RNAP, the concentration for half-maximal inhibition (IC50) was over 10 µM. The minimal inhibitory concentration (MIC) in the assay on Enterobacter cloacae, with Enterococcus faecium and against Psuedomonas aeruginosa was over 10 µM each time.

`N#CC(=NNc1ccc(C(=O)O)cc1)C(=O)c1ccc(Cl)cc1` [Example 9] yielded an IC50 on E. coli RNAP of over 10 µM. Moreover, the minimal inhibitory concentration (MIC) in the assay on Enterobacter cloacae, against Enterococcus faecium and in the assay on Psuedomonas aeruginosa was over 10 µM throughout.

Regarding `CS(=O)(=O)c1ccc(NN=C(C#N)C(=O)c2ccc(Cl)cc2)cc1` [Example 1], the MIC in the assay on S. aureus is over 10 µM; in the assay with Enterobacter cloacae, under 0.5 µM; with Enterococcus faecium it was over 10 µM; against Psuedomonas aeruginosa, over 10 µM. In addition, the half-inhibitory concentration (IC50) on E. coli RNAP was under 0.5 µM.

Turning to `C[S+]([O-])c1ccc(NN=C(C#N)C(=O)c2ccc(Cl)cc2)cc1` (stereo not shown) [Example 5], the MIC in the assay with S. aureus is over 10 µM; against Enterobacter cloacae, 0.5 to 10 µM (≈ 0.173 to 3.46 µg/mL); with Enterococcus faecium it was over 10 µM; in the assay with Psuedomonas aeruginosa, over 10 µM. The IC50 against E. coli RNAP was 0.5 to 10 µM.

Take `Cc1c(C(=O)C(C#N)=NNc2ccc(C(C)C)cc2)sc2ccc(Cl)cc12` [Example 16]: the minimal inhibitory concentration (MIC) in the assay on S. aureus is over 10 µM; in the assay on Enterobacter cloacae it was 0.5 to 10 µM (≈ 0.198 to 3.96 µg/mL); in the assay on Enterococcus faecium it was over 10 µM; in the assay on Psuedomonas aeruginosa it was over 10 µM. On E. coli RNAP, this compound registered an IC50 of 0.5 to 10 µM.

In the case of `CC(=O)Nc1ccc(NN=C(C#N)C(=O)c2ccc(Cl)cc2)cc1` [Example 10], the concentration for half-maximal inhibition (IC50) at E. coli RNAP is over 10 µM. In addition, the MIC in the assay on Enterobacter cloacae, in the assay with Enterococcus faecium and against Psuedomonas aeruginosa was over 10 µM throughout.

For the compound `N#CC(=NNc1ccc([N+](=O)[O-])cc1)C(=O)c1ccc(Cl)cc1` [Example 17, 2-(4-nitrophenyl)hydrazono-3-oxo-3-(4-chlorophenyl)propionitrile], the minimum inhibitory concentration (MIC) was 0.5 to 10 µM (≈ 0.164 to 3.29 µg/mL) in the assay on S. aureus, under 0.5 µM in the assay with Enterobacter cloacae, under 0.5 µM against Enterococcus faecium and over 10 µM with Psuedomonas aeruginosa. Moreover, the concentration for half-maximal inhibition (IC50) against E. coli RNAP was under 0.5 µM.

Take `CC(=O)N(N=C(C#N)C(=O)c1ccc(Cl)cc1)c1ccc(Cl)cc1` [Example 14]: the MIC in the assay on S. aureus was over 10 µM; in the assay on Enterobacter cloacae it was 0.5 to 10 µM (≈ 0.18 to 3.6 µg/mL); in the assay with Enterococcus faecium it was over 10 µM; in the assay on Psuedomonas aeruginosa it was over 10 µM. The same compound gave a half-maximal inhibitory concentration (IC50) at E. coli RNAP of over 10 µM.

For `CSc1ccc(NN=C(C#N)C(=O)c2ccc(Cl)cc2)cc1` [Example 4], the MIC with S. aureus is over 10 µM; in the assay on Enterobacter cloacae, 0.5 to 10 µM (≈ 0.165 to 3.3 µg/mL); in the assay on Enterococcus faecium, over 10 µM; with Psuedomonas aeruginosa, over 10 µM. The compound further yielded an IC50 at E. coli RNAP of 0.5 to 10 µM.
